Measured values reported in paper PMC11048362, “Conformational Modulation of Tissue Transglutaminase via Active Site Thiol Alkylating Agents: Size Does Not Matter” (Biomolecules, 2024).

Target: T1, TG2 (human tissue transglutaminase) (Homo sapiens, UniProt P21980)
T1 construct: gene TGM2; recombinant, expressed in and purified from E. coli as previously described; catalytic Cys277
T1 sequence (P21980 2-687): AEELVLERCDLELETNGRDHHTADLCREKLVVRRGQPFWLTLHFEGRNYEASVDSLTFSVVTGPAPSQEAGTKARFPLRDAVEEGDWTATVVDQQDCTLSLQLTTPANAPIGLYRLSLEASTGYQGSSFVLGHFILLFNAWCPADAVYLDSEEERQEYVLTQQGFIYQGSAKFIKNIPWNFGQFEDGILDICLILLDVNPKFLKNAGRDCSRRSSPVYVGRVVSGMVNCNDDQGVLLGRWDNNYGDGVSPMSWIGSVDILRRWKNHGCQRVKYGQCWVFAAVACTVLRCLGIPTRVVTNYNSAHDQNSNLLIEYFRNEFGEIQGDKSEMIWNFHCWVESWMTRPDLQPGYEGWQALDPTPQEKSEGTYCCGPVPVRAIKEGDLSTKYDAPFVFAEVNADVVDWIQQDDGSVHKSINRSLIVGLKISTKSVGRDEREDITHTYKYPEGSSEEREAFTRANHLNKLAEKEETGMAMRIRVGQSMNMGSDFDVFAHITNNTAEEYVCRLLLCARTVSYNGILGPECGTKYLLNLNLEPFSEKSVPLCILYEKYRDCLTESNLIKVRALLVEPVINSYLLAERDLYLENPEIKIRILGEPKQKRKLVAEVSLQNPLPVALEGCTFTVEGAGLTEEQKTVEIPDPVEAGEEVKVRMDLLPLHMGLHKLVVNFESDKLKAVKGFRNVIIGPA
Assay: colorimetric AL5 hydrolysis at […] nm, Kitz and Wilson time-dependent inactivation, saturation fit
Type: biochemical
Conditions: covalent (Cys277), irreversible; 100 µM AL5, corrected for substrate competition; 50 mM MOPS pH 6.91, 15.5 mM CaCl2, 25 °C

SMILES	KI (inactivation) [µM]
C=CC(=O)NCC(=O)N1CCN(C(=O)C23CC4CC(CC(C4)C2)C3)CC1 [compound 1, 1]	3.2 ± 1
C=CC(=O)NCC(=O)N1CCN(C(=O)OC(C)(C)C)CC1 [compound 2, 2]	129 ± 53
C=CC(=O)NCC(=O)N1CCN(C(C)=O)CC1 [compound 3, 3]	96 ± 17
C=CC(=O)N1CCN(C(=O)C23CC4CC(CC(C4)C2)C3)CC1 [compound 4, 4]	118 ± 59
C=CC(N)=O [compound 8, acrylamide]	148 ± 68

The remaining lines, values ahead:

KI (inactivation) [µM]	SMILES
487 ± 161	C=CC(=O)NCC(=O)N1CCOCC1 [compound 5, 5]
842 ± 25	C=CC(=O)NCC(N)=O [compound 6, 6]
